Measured values published in ChEMBL document CHEMBL2424579, “Quinazolin-4-one derivatives as selective histone deacetylase-6 inhibitors for the treatment of Alzheimer's disease” (J Med Chem, 2013).
Calls of active or inactive are those of the source. No cut-off for these calls is given here.

Legend:
[1] = molecular target: T1, Amyloid-beta precursor protein (Homo sapiens, UniProt P05067); assay: Inhibition of amyloid beta aggregation (unknown origin) after 4 hrs by thioflavin S assay in absence of Zn2+
T1 sequence (P05067 whole entry): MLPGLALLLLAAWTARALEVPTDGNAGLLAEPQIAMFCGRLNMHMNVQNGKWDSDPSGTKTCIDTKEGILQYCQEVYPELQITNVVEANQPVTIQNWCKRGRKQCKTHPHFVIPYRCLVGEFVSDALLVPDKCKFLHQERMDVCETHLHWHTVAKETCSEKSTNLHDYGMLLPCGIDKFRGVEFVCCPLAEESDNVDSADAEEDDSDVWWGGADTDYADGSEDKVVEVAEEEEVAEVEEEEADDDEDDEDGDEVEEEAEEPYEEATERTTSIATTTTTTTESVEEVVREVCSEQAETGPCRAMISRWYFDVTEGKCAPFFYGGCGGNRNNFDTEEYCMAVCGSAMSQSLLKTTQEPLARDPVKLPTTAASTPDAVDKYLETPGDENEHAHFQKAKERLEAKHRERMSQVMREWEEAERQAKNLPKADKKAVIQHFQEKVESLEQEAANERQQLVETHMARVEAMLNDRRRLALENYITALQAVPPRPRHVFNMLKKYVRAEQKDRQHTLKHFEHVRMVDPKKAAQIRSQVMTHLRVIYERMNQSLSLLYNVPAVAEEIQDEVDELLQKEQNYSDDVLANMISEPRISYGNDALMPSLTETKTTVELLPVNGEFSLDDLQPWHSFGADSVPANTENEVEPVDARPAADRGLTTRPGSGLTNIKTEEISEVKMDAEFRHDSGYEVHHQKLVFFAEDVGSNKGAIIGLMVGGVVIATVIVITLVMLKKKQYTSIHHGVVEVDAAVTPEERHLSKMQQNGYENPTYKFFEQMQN

[2] = molecular target: T1, Amyloid-beta precursor protein; assay: Inhibition of amyloid beta aggregation (unknown origin) after 4 hrs by thioflavin S assay in presence of Zn2+
SH-SY5Y [3] = assay: Increase of synaptic activity in human SH-SY5Y cells after 5 days by fluorescence assay; format: functional, cell-based; conditions: 120 h
[4] = Cytotoxicity against human SH-SY5Y cells at 25 uM; format: cell-based
PC-12 [5] = assay: Induction of neurite outgrowth in rat PC12 cells at 10 uM after 5 days; format: functional, cell-based
PC-12 [6] = assay: Cytotoxicity against rat PC12 cells at 25 uM; format: cell-based; conditions: pc-12, 25 µM
PC-12 [7] = assay: Induction of neurite outgrowth in rat PC12 cells after 5 days; format: functional, cell-based; conditions: PC-12, 120 h
Histone deacetylase 1 = Histone deacetylase 1 (Homo sapiens, UniProt Q13547); assay: Inhibition of human recombinant HDAC1 expressed in baculovirus/sf9 cells using RHKKAc as substrate
Histone deacetylase 1, sequence (Q13547 whole entry): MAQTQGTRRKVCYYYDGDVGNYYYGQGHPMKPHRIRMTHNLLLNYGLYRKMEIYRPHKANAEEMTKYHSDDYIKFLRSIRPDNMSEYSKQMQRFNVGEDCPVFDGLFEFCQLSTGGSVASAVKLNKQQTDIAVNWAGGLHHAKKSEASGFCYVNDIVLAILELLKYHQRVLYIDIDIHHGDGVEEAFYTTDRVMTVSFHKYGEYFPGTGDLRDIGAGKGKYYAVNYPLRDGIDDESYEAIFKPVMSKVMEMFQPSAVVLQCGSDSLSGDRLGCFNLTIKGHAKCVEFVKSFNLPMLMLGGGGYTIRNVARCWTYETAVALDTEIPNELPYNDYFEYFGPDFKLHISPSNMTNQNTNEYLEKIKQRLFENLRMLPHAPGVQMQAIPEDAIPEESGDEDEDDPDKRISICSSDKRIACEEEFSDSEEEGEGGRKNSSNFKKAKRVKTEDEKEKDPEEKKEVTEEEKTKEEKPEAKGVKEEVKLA

SH-SY5Y [8] = assay: Induction of neurite outgrowth in human SH-SY5Y cells after 5 days; format: functional, cell-based; conditions: 120 h
[9] = molecular target: T2, Protein deacetylase HDAC6 (Homo sapiens, UniProt Q9UBN7); assay: Inhibition of human recombinant HDAC6 expressed in baculovirus/sf9 cells using RHKKAc as substrate
T2 sequence (Q9UBN7 whole entry): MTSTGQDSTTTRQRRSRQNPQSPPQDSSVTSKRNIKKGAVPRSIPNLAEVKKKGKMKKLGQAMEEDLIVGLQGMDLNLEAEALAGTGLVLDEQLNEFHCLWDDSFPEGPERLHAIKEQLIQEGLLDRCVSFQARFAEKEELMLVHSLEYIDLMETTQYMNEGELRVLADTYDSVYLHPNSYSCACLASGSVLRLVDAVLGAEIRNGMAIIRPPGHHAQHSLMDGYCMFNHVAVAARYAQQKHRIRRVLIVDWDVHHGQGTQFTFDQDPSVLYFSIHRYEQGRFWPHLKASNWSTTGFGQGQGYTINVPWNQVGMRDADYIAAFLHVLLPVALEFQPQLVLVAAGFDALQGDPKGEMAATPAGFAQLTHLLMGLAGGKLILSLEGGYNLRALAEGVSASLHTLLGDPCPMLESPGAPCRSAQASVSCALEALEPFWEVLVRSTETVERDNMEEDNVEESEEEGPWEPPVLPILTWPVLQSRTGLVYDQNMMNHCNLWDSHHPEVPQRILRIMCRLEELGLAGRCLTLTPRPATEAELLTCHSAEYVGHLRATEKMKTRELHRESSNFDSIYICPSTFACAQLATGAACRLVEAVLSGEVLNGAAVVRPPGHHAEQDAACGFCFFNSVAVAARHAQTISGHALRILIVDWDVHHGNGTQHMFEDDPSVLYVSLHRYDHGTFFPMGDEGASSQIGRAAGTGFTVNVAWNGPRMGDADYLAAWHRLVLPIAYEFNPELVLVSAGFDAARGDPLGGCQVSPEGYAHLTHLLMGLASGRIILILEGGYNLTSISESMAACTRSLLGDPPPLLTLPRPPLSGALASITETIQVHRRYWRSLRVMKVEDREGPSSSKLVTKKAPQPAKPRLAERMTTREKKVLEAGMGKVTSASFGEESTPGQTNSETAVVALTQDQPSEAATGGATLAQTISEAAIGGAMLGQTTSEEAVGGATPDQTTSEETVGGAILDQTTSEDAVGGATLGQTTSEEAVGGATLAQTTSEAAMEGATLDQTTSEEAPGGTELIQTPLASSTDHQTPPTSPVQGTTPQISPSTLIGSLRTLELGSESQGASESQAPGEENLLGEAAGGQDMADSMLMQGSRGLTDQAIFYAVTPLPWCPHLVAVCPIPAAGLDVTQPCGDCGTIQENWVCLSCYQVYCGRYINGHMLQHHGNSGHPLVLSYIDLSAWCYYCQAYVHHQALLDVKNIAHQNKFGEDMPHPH

SH-SY5Y [10] = assay: Induction of neurite outgrowth in human SH-SY5Y cells at 10 uM after 5 days; format: functional, cell-based
Vero = assay: Cytotoxicity against african green monkey Vero cells at 25 uM; format: cell-based; conditions: chlorocebus sabaeus
Histone deacetylase 2 = Histone deacetylase 2 (Homo sapiens, UniProt Q92769); assay: Inhibition of human recombinant HDAC2 expressed in baculovirus/sf9 cells using RHKKAc as substrate
Histone deacetylase 2, sequence (Q92769 whole entry): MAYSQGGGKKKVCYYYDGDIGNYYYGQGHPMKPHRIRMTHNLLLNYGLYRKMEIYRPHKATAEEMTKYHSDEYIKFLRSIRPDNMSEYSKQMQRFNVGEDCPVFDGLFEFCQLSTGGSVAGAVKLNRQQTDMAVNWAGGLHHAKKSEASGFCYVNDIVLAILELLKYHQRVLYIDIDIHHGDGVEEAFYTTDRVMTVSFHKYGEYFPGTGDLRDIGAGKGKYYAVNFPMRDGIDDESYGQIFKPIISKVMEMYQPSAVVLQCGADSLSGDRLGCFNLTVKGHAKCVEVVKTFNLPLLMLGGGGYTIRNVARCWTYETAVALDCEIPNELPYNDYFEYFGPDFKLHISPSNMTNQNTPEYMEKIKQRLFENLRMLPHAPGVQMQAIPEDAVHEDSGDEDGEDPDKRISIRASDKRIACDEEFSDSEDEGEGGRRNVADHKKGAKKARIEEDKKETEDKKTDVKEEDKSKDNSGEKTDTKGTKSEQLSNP

Histone deacetylase 11 = molecular target: T3, Histone deacetylase 11 (Homo sapiens, UniProt Q96DB2); assay: Inhibition of human recombinant HDAC11 expressed in baculovirus/sf9 cells using RHKKAc as substrate
T3 sequence (Q96DB2 whole entry): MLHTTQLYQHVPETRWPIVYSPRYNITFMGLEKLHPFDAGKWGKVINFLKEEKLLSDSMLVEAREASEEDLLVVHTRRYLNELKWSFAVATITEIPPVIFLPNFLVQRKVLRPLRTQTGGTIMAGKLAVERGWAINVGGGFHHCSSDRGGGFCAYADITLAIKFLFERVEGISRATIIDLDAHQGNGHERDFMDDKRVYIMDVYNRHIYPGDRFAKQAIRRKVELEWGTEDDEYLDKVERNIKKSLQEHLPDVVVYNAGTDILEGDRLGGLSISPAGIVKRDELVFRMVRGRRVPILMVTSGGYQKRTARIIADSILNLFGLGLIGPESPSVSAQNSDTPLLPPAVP

Histone deacetylase 8 = molecular target: T4, Histone deacetylase 8 (Homo sapiens, UniProt Q9BY41); assay: Inhibition of human recombinant HDAC8 expressed in baculovirus/sf9 cells using RHKAcKAc as substrate
T4 sequence (Q9BY41 whole entry): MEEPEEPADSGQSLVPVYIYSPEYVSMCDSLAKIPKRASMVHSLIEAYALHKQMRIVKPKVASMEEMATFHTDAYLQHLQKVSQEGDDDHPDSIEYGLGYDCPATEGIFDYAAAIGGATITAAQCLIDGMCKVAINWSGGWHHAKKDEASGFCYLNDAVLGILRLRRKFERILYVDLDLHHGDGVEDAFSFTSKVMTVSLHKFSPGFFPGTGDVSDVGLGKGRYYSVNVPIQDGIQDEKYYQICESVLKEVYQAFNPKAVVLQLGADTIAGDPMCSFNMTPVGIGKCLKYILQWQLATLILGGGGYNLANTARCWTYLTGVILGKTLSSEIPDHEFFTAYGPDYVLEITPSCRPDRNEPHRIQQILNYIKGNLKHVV

PC-12 [11] = assay: Increase of synaptic activity in rat PC12 cells after 5 days by fluorescence assay; format: functional, cell-based; conditions: PC-12, 120 h
Homo sapiens [12] = species on record: Homo sapiens; assay: Selectivity index, ratio of IC50 for human recombinant HDAC1 to IC50 for human recombinant HDAC6
Homo sapiens [13] = species on record: Homo sapiens; assay: Selectivity index, ratio of IC50 for human recombinant HDAC8 to IC50 for human recombinant HDAC6

| Compound | IC50 [1] | IC50 [2] | EC50 (SH-SY5Y [3]) | Activity [4] | Activity (PC-12 [5]) | Activity (PC-12 [6]) | EC50 (PC-12 [7]) | IC50 (Histone deacetylase 1) | EC50 (SH-SY5Y [8]) | IC50 [9] | Activity (SH-SY5Y [10]) | Activity (Vero) | IC50 (Histone deacetylase 2) | IC50 (Histone deacetylase 11) | IC50 (Histone deacetylase 8) | EC50 (PC-12 [11]) | Ratio IC50 (Homo sapiens [12]) | Ratio IC50 (Homo sapiens [13]) |
| --- | --- | --- | --- | --- | --- | --- | --- | --- | --- | --- | --- | --- | --- | --- | --- | --- | --- | --- |
| O=C(O)CN(CCN(CC(=O)O)CC(=O)O)CC(=O)O [EDETIC ACID] | 28.4 µM | 7.7 µM | – | – | – | – | – | – | – | – | – | – | – | – | – | – | – | – |
| O=C(/C=C/c1ccc2c(=O)n(CCc3ccccc3)c(C3CC3)nc2c1)NO | – | – | > 25 µM | Non-toxic | Active | Non-toxic | 10.5 µM | 0.433 µM | > 25 µM | 0.041 µM | Active | Non-toxic | – | – | – | – | – | – |
| CCc1nc2cc(/C=C/C(=O)NO)ccc2c(=O)n1CCc1ccc(OC)cc1 | – | – | 20.6 µM | Non-toxic | – | Non-toxic | 7.2 µM | 1.81 µM | > 25 µM | 0.041 µM | – | Non-toxic | 4.78 µM | 3.91 µM | 0.594 µM | 20.6 µM | – | – |
| O=C(/C=C/c1ccc2c(=O)n(CCc3ccccc3)cnc2c1)NO | > 50 µM | – | 4.9 µM | Non-toxic | Active | Non-toxic | > 25 µM | 0.495 µM | 15 µM | 0.035 µM | Active | Non-toxic | 1.22 µM | 0.73 µM | 0.6 µM | 14.5 µM | – | – |
| CCc1nc2cc(Cl)c(/C=C/C(=O)NO)cc2c(=O)n1CCc1ccccc1 | – | – | – | Non-toxic | – | Non-toxic | – | > 10 µM | – | 0.747 µM | – | Non-toxic | > 12 µM | > 30 µM | 1.88 µM | – | > 13 | 3 |
| CCc1nc2ccc(Cc3ccc(C(=O)NO)cc3)cc2c(=O)n1CCc1ccccc1 | – | – | 4.1 µM | Non-toxic | Active | Non-toxic | 9.4 µM | 1.05 µM | 18.4 µM | 0.011 µM | Active | Non-toxic | 3.61 µM | 0.656 µM | 0.099 µM | 2.9 µM | – | – |
| CCc1nc2cc(/C=C/C(=O)NO)c(F)cc2c(=O)n1CCc1ccccc1 | – | – | – | Non-toxic | – | Non-toxic | – | 3 µM | – | 0.014 µM | – | Non-toxic | > 10 µM | 3.74 µM | 1.4 µM | – | 214 | 100 |
